Measured values from publication PMC12064818, “A general assay platform to study protein pharmacology using ligand-dependent structural dynamics” (Nature Communications, 2025).
Like-named read-outs stand apart in the source and are kept apart here.

Assays:
PKA-N-HiBiT = PKA-N-HiBiT (Homo sapiens, UniProt P17612); assay: SDR assay, PKA-N-HiBiT; settings: for SDR Ave Max Response: average maximal response
PKA = settings: annotation yes/no for kinase library compound; source not given; cited from earlier work
[1] = molecular target: T1, ABL1-N-HiBiT kinase domain (Homo sapiens, UniProt P00519); assay: SDR assay, ABL1-N-HiBiT
T1 sequence (P00519 233-500): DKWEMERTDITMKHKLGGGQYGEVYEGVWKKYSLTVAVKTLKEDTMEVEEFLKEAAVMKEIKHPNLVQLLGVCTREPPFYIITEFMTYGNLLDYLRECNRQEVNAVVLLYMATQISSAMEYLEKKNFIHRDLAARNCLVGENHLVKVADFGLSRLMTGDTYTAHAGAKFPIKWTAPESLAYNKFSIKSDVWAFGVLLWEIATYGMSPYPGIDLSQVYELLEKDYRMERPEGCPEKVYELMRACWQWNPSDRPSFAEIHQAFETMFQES

[2] = molecular target: T1, ABL1-N-HiBiT kinase domain; assay: ABL1 peptide phosphorylation, Kinase-Glo Plus (KGP) assay, ABL1-N-HiBiT; assay type: biochemical; set-up: containing amino acid residues Asp233-Ser500; His10 (N); made in house; host or cells: E. coli BL21(DE3)
Method: Kinase activity was measured by ATP depletion using the Kinase-Glo Plus (KGP) assay kit (Promega) in 1536-well plate format. […] Controls were added with a Mosquito dispenser (STP LabTech) while compounds were transferred with a pintool to each plate as described in Supplementary Data 8 and incubated for 30 min at ambient temperature. […] Following a 10 min incubation, KGP luminescence was measured with a ViewLux plate reader with 1 sec exposure, with medium to high gain setting, slow speed and 2x binning. Data were normalized to the average of no enzyme control column as 100% kinase inhibition and DMSO control column as 100% phosphorylation reaction progress. See Supplementary Table 5 for additional details.
Protocol for Abelson kinase (ABL1) and protein kinase A (PKA) peptide phosphorylation assays
Supplementary Table 5: Protocol for Abelson kinase (ABL1) and protein kinase A (PKA) peptide phosphorylation assays Sequence Param eter Value Description
3 Incubation 30 m in Incubate enzym e + com pounds at am bient tem p for 30 m in, protected from light […]
protocol; dispensed with BioRaptr 2

[3] = heatmap data, 128 kinase inhibitors
[4] = ABL1-N-HiBiT qHTS, average maximal SDR response
[5] = read-out: SDR Ave SDR50, ABL1-N-HiBiT qHTS, average, unit inferred
[6] = ABL1, Kinase-Glo Plus (KGP), heatmap data, 128 kinase inhibitors
[7] = ABL1-N-HiBiT qHTS, average, unit inferred, read-out: ABL1 KGP Ave IC50

Row | SMILES | SDR Ave Max Response (PKA-N-HiBiT; PKA-N-HiBiT qHTS, SDR assay) | Annotated PKA activity (PKA) | ABL1 SDR pSDR50 [1, 3] | SDR Ave Max Response [1, 4] | EC50 [1, 5] | ABL1 KGP pIC50 [2, 6] | IC50 [2, 7] | Emax (PKA-N-HiBiT; read-out: SDR Ave Max Response) | detection in ABL1-N-HiBiT SDR assay (in words) [1] | EC50 ([1]; ABL1 SDR pSDR50, ABL1, SDR, heatmap data, 128 kinase inhibitors) | EC50 ([1]; SDR Ave SDR50, ABL1-N-HiBiT qHTS, average, unit inferred) | Emax ([1]; read-out: SDR Ave Max Response) | IC50 ([2]; ABL1, Kinase-Glo Plus (KGP), heatmap data, 128 kinase inhibitors, read-out: ABL1 KGP pIC50 (converted)) | SDR Ave Max Response ([1]; ABL1-N-HiBiT qHTS, SDR assay, average maximal response) | EC50 ([1]; read-out: SDR Ave SDR50, ABL1-N-HiBiT qHTS, SDR assay, average) | IC50 ([2]; ABL1-N-HiBiT qHTS, Kinase-Glo Plus (KGP) assay, average, read-out: ABL1 KGP Ave IC50) | PKA SDR Ave pSDR50 (PKA-N-HiBiT; PKA-N-HiBiT qHTS, SDR assay, average) | EC50 (PKA-N-HiBiT; read-out: PKA SDR Ave SDR50, PKA-N-HiBiT qHTS, SDR assay, average)
1 | c1ccc(-c2oc3ncnc(NC[C@@H]4CCCO4)c3c2-c2ccccc2)cc1 [AIM-100] | 5.90 | no | 5.05 | 62.31 | 9940 nM | 4.83 | 15.2 µM | – | – | – | – | – | – | – | – | – | – | –
2 | CCN1CCN(Cc2ccc(NC(=O)c3ccc(C)c(NC(=O)c4cncc(-c5cccs5)c4)c3)cc2C(F)(F)F)CC1 [ALW-II-41-27, reference compound] | – | no | – | – | – | – | 0.0182 µM | 16.2% | potent inhibitor | 5.37 nM | 6.72 nM | 66.2% | 0.0178 µM | – | – | – | – | –
3 | Cn1cc(-c2cc3c(N4CCN(c5ncc([C@@](C)(N)c6ccc(F)cc6)cn5)CC4)ncnn3c2)cn1 [Avapritinib] | 9.65 | no | 5.65 | – | – | 4.91 | – | – | – | – | – | – | – | 77.35 | 2260 nM | 14 µM | – | –
4 | CCOc1ccn(-c2ccc(F)cc2)c(=O)c1C(=O)Nc1ccc(Oc2ccnc(N)c2Cl)c(F)c1 [BMS-777607] | 20.08 | yes | 5.27 | 78.74 | 5810 nM | 4.97 | 15.7 µM | – | – | – | – | – | – | – | – | – | 4.43 | 76 µM
